# Laboratory results reported in ChEMBL document CHEMBL3045592, “Studies of O,O-dimethyl α-(2,4-dichlorophenoxyacetoxy)ethylphosphonate (HW02) as a new herbicide. 1. Synthesis and herbicidal activity of HW02 and analogues as novel inhibitors of pyruvate dehydrogenase complex” (J Agric Food Chem, 2011).
# Tests used:
# [1] = test system: Cucumis sativus; assay: Herbicidal activity against Cucumis sativus Jin 4 (cucumber) assessed as inhibition of stem growth after 3 days; assay type: functional, organism-based; details: Jin 4, 72 h
# [2] = test system: Cucumis sativus; assay: Herbicidal activity against Cucumis sativus Jin 4 (cucumber) assessed as inhibition of root growth after 3 days; assay type: functional, organism-based; details: Jin 4, 72 h
# [3] = test system: Medicago sativa; assay: Post-emergence herbicidal activity against Medicago sativa (alfalfa) assessed as growth inhibition at 1500 ai g/ha after 20 days by green house test; assay type: functional
# [4] = test system: Brassica rapa subsp. oleifera; assay: Pre-emergence herbicidal activity against Brassica rapa subsp. oleifera Si Yue Man assessed as growth inhibition at 1500 ai g/ha after 20 days by green house test; assay type: functional
# [5] = test system: Echinochloa crus-galli; assay: Post-emergence herbicidal activity against Echinochloa crus-galli (barnyard grass) assessed as growth inhibition at 1500 ai g/ha after 20 days by green house test; assay type: functional
# [6] = test system: Digitaria sanguinalis; assay: Post-emergence herbicidal activity against Digitaria sanguinalis (hairy crabgrass) assessed as growth inhibition at 1500 ai g/ha after 20 days by green house test; assay type: functional
# [7] = test system: Brassica rapa subsp. oleifera; assay: Post-emergence herbicidal activity against Brassica rapa subsp. oleifera Si Yue Man assessed as growth inhibition at 1500 ai g/ha after 20 days by green house test; assay type: functional
# [8] = test system: Digitaria sanguinalis; assay: Pre-emergence herbicidal activity against Digitaria sanguinalis (hairy crabgrass) assessed as growth inhibition at 1500 ai g/ha after 20 days by green house test; assay type: functional
# [9] = test system: Medicago sativa; assay: Pre-emergence herbicidal activity against Medicago sativa (alfalfa) assessed as growth inhibition at 1500 ai g/ha after 20 days by green house test; assay type: functional
# [10] = test system: Amaranthus retroflexus; assay: Post-emergence herbicidal activity against Amaranthus retroflexus assessed as growth inhibition at 1500 ai g/ha after 20 days by green house test; assay type: functional
# [11] = test system: Amaranthus retroflexus; assay: Pre-emergence herbicidal activity against Amaranthus retroflexus assessed as growth inhibition at 1500 ai g/ha after 20 days by green house test; assay type: functional
# [12] = test system: Echinochloa crus-galli; assay: Pre-emergence herbicidal activity against Echinochloa crus-galli (barnyard grass) assessed as growth inhibition at 1500 ai g/ha after 20 days by green house test; assay type: functional
Compound,IC50 [1],IC50 [2],growth inhibition (GI) [3],growth inhibition (GI) [4],growth inhibition (GI) [5],growth inhibition (GI) [6],growth inhibition (GI) [7],growth inhibition (GI) [8],growth inhibition (GI) [9],growth inhibition (GI) [10],growth inhibition (GI) [11],growth inhibition (GI) [12]
CCOP(=O)(COC(=O)COc1ccc(Cl)cc1Cl)OCC,13.4 µM,–,–,–,–,–,–,–,–,–,–,–
CCCC(OC(=O)COc1ccc(Cl)cc1Cl)P(=O)(OC)OC (centres undefined),9.34 µM,0.0075 µM,–,–,–,–,–,–,–,–,–,–
CCC(OC(=O)COc1ccc(Cl)cc1Cl)P(=O)(OC)OC (centres undefined),14 µM,0.327 µM,90%,90%,50%,50%,90%,75%,90%,90%,90%,75%
CCOP(=O)(OCC)C(CC)OC(=O)COc1ccc(Cl)cc1Cl (centres undefined),25.7 µM,0.31 µM,–,–,–,–,–,–,–,–,–,–
CCCOP(=O)(OCCC)C(OC(=O)C(C)Oc1ccc(Cl)cc1Cl)c1ccccc1Cl (centres undefined),164 µM,12.1 µM,–,–,–,–,–,–,–,–,–,–
CCOP(=O)(OCC)C(C)OC(=O)C(C)Oc1ccc(Cl)cc1Cl (centres undefined),–,1.08 µM,–,–,–,–,–,–,–,–,–,–
COP(=O)(OC)C(OC(=O)COc1ccc(Cl)cc1Cl)c1cccc([N+](=O)[O-])c1 (centres undefined),5.02 µM,0.0034 µM,90%,90%,<=50%,<=50%,90%,<=50%,90%,90%,90%,50%
CCCOP(=O)(OCCC)C(OC(=O)C(C)Oc1ccc(Cl)cc1Cl)c1ccccc1 (centres undefined),44.3 µM,4.52 µM,–,–,–,–,–,–,–,–,–,–
COP(=O)(OC)C(OC(=O)C(C)Oc1ccc(Cl)cc1Cl)c1ccccc1 (centres undefined),30.1 µM,–,–,–,–,–,–,–,–,–,–,–
CCCC(OC(=O)C(C)Oc1ccc(Cl)cc1Cl)P(=O)(OC)OC (centres undefined),13.7 µM,2.98 µM,–,–,–,–,–,–,–,–,–,–
CCOP(=O)(OCC)C(OC(=O)COc1ccc(Cl)cc1Cl)c1ccccc1 (centres undefined),109 µM,0.0488 µM,–,–,–,–,–,–,–,–,–,–
COP(=O)(OC)C(C)OC(=O)C(C)Oc1ccc(Cl)cc1Cl (centres undefined),6.74 µM,1.42 µM,–,–,–,–,–,–,–,–,–,–
COP(=O)(OC)C(OC(=O)COc1ccc(F)cc1Cl)c1ccccc1 (centres undefined),–,–,75%,90%,75%,50%,75%,90%,90%,90%,90%,90%
COP(=O)(OC)C(C)OC(=O)COc1ccc(F)cc1 (centres undefined),–,–,50%,75%,<=50%,<=50%,50%,90%,75%,75%,50%,<=50%
COP(=O)(OC)C(C)OC(=O)COc1cccc(F)c1 (centres undefined),–,–,<=50%,<=50%,<=50%,<=50%,<=50%,<=50%,<=50%,<=50%,<=50%,<=50%
CCOP(=O)(OCC)C(OC(=O)COc1ccc(Cl)cc1Cl)c1ccccc1Cl (centres undefined),–,1.49 µM,–,–,–,–,–,–,–,–,–,–
COP(=O)(OC)C(OC(=O)COc1ccc(F)cc1Cl)c1cccc([N+](=O)[O-])c1 (centres undefined),–,–,50%,90%,75%,50%,75%,90%,90%,90%,90%,90%
COP(=O)(OC)C(OC(=O)COc1ccc(C)cc1)c1ccccc1 (centres undefined),–,–,50%,75%,<=50%,<=50%,50%,<=50%,75%,50%,75%,<=50%
COP(=O)(OC)C(OC(=O)COc1ccc(C(F)(F)F)cc1)c1cccc([N+](=O)[O-])c1 (centres undefined),–,–,<=50%,<=50%,<=50%,<=50%,<=50%,<=50%,<=50%,50%,<=50%,<=50%
CCCOP(=O)(OCCC)C(C)OC(=O)C(C)Oc1ccc(Cl)cc1Cl (centres undefined),18 µM,2.44 µM,–,–,–,–,–,–,–,–,–,–
